Reference: ChEMBL document CHEMBL4257493, “Discovery of 7-hydroxyaporphines as conformationally restricted ligands for beta-1 and beta-2 adrenergic receptors” (Medchemcomm, 2018)

Biological target: Beta-2 adrenergic receptor (Homo sapiens, UniProt P07550)
Experiment: Displacement of [3H]-CGP-12177 from human beta2-adrenergic receptor

Sequence of Beta-2 adrenergic receptor (P07550 whole entry): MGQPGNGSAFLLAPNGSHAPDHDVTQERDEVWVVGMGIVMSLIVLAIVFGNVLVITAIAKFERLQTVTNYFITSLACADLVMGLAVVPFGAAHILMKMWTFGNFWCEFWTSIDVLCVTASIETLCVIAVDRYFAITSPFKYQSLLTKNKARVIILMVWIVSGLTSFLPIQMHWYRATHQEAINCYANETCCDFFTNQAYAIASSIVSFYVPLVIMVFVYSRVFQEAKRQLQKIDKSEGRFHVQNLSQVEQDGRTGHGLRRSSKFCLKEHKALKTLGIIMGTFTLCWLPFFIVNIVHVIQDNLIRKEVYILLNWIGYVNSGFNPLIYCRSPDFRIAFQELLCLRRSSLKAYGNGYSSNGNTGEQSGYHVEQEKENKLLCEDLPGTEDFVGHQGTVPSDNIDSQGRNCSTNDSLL

Q: With COc1cc2c3c(c1OC)-c1ccccc1[C@H](O)[C@H]3NCC2 as the molecule, how does the IC50 read?
A: Its IC50 is 1600 nM.
